# Laboratory results taken from patent US20140377324A1, “Pharmaceutical Composition Comprising miRNA-100 And Its Use In The Modulation of Blood Vessel Growth and Endothelial Inflammation” (Universitatsklinikum Freiburg, priority 2009, published 2014).
# “Also recorded” adds a separate entry of the source. {Chol} = cholesterol
# Experiments:
# miR-100 [1] = test: miR-100 expression in endothelial cells after cytokine, inhibitor or statin exposure (stem loop Taqman PCR); format: cell-based, human; conditions: for miR-100 expression: endothelial cells exposed to cytokine, TNF-α 10 ng/ml for different time points (FIG. 16A)
# Text: (§1) MicoRNA expression was validated by quantitative stem-loop PCR technology (TaqMan MicroRNA Assays, Applied Biosystems, Foster City, Calif.). The use of target-specific reverse transcription primers and TaqMan hybridization probes allows the specific detection of mature microRNAs. MicroRNA expression was normalized to the expression of the small RNAs rnu19 and rnu48.
# To search for possible inducers of miR-100 downregulation in endothelial cells, several pro-angiogenic or pro-arteriogenic cytokines were screened for effects on miR-100 expression.
# FIG. 16 [A]: Human endothelial cells were stimulated 10 ng/ml TNF-α for different time points. RNA was isolated and quantified using Taqman based Stem loop PCR.
# FIG. 16 [B]: The NF-kappaB inhibitor PS1145 (10 μM) was added to TNF-α stimulated (10 ng/ml) human endothelial cells and the miR-100 expression level, compared to controls without PS1145, were measured using Stem loop Taqman PCR.
# Human endothelial cells were stimulated with 1 μM Simvastatin for 48 h.
# [2] = test system: murine hindlimb ischemia model; test: murine hindlimb ischemia model, perfusion restoration and capillary density; format: in vivo, C57/BI6J mice
# Method: (§2) The murine hindlimb ischemia model conforms to the Guide for the Care and Use of Laboratory Animals published by the U.S. National Institutes of Health and was performed after securing appropriate institutional approval. Unilateral femoral artery occlusion was performed in C57/BI6J mice (Charles River Lab., Sulzfeld, Germany) by double ligation of the superficial femoral artery proximal to the deep femoral artery and the distal femoral artery just above the knee joint. A sham operation without arterial occlusion was performed on the contralateral leg. For molecular biology, histology and in situ hybridization, tissue was carefully dissected and snap-frozen in liquid nitrogen until further analysis. For dissection of isolated collateral arteries, the hindlimb vasculature was […] with liquid latex, to allow the identification and isolation of individual arterial vessels.
# (§3) To assess whether inhibition of miR-100 can be be used to stimulate revascularization in vivo, mice were treated with a specific antagomir against miR-100 after induction of unilateral hindlimb ischemia.
# In addition, two separate groups of mice were treated with daily injections of the mTOR-inhibitor rapamycin or solvent to investigate the timecourse of hindlimb perfusion restoration under conditions of endogenous miR-100 downregulation, but impaired signalling of its target gene mTOR.
# [3] = tissue distribution of fluorescence-labeled antagomir; format: in vivo; conditions: mice
# miR-100 [4] = test: miR-100 expression in mouse tissues after antagomir treatment; format: in vivo; conditions: mice, three doses of antagomir; FIG. 8
# Method: as §2, §3
# endothelial cells [5] = test: flow cytometric quantification of Annexin V-staining (apoptosis); format: cell-based, human; conditions: compared to irrelevant control sequence, FIG. 3
# Text: (§4) To assess whether the observed differences were secondary to effects on cellular viability, endothelial cell apoptosis and proliferation following miR-100 modulation was checked. […] DNA-synthesis rate was further analyzed by measuring BrdU-Incorporation, which correlates well with cellular proliferation.
# endothelial cells [6] = test: three-dimensional spheroid culture assay, endothelial sprouting; format: cell-based, human
# endothelial cells [7] = test: planar matrigel assay, endothelial network formation; format: cell-based, human
# miR-100 [8] = test: miR-100 level by quantitative stem-loop RT-PCR after pre-miR/anti-miR transfection; format: cell-based, human; conditions: 24 h following transfection; vs irrelevant-sequence controls; FIG. 2
# Text: To verify the expression of miR-100 in pure cell populations of the vascular wall, stem-loop RT-PCR was used for total RNA-isolates from cultured human endothelial cells (HUVECs) and human aortic vascular smooth muscle cells.
# as §1
# miR-100 was strongly expressed in both cell types. To investigate a potential role of miR-100 for angiogenesis, miR-100 was overexpressed and silenced in these cell types by transfecting specific miR-100 precursors (pre-miRs) or antisense-molecules (anti-miRs), respectively. […] Pre- and anti-miRs with an irrelevant nucleotide sequence served as negative controls. There was no significant difference in cellular viability following transfection with the different compounds.
# For transfection with pre-miR microRNA precursor molecules or anti-miRmiRNA inhibitors (all Ambion), cells were cultured to 70% confluence and transfected with 8nM pre-miR-100 or anti-miR-100 oligonucleotides using Lipofectamin RNAiMax (invitrogen) according to the manufacturers instructions. […]
# endothelial cells [9] = test: BrdU-Incorporation (proliferation), endothelial cells; format: cell-based, human; conditions: FIG. 3
# Text: as §4
# HUVECs / human PBMCs = test: Leukocyte-HUVEC interaction under flow conditions (flow chamber); format: cell-based; conditions: TNF-alpha 30 ng/ml for 24 h, flow 1 dyn/cm^2; FIG. 15
# Method: HUVECs were grown to confluence, transfected with either anti-miR-100 or pre-Mir-100 oligonucelotides or scrambled controls and stimulated with TNF-alpha 30 ng/ml for 24 h. Human PBMCs (HPBMCs) were obtained from buffy coats of healthy donors by Ficoll-Hypaque density gradient centrifugation. The flow chamber was assembled and placed onto an inverted microscope stage, and freshly isolated HPBMCs (1×10^6/ml) were perfused across the endothelial monolayers. In all experiments, leukocyte interactions were determined over 105 min at 1 dyn/cm^2. Cells interacting on the surface of the endothelium were visualized and recorded using phase-contrast microscopy.
# To test if this change in expression results in a functional difference in leukocyte rolling and adhesion to the endothelial surface, the attachment of isolated peripheral blood mononuclear cells (PBMC) to transfected endothelial cells was investigated under physiologic flow conditions in a flow chamber apparatus.
# A physiological venous blood flow (1 dynes/cm^2) was induced by a flow chamber apparatus and the number of rolling or adherent peripheral blood mononuclear cells (PBMCs) was counted.
# mTOR = mTOR expression in endothelial cells after miR-100 modulation; format: cell-based, human; conditions: FIG. 5
# Method: The binding site of miR-100 in the 3′-UTR of mTOR is shown in (FIG. 6.) In FIG. 6 the sequence designated hsa-miR-100 corresponds to SEQ ID NO:1 and the sequence having the designation mTOR 3′UTR corresponds to SEQ ID NO:7.
# For transfection with pre-miR microRNA precursor molecules or anti-miRmiRNA inhibitors (all Ambion), cells were cultured to 70% confluence and transfected with 8nM pre-miR-100 or anti-miR-100 oligonucleotides using Lipofectamin RNAiMax (invitrogen) according to the manufacturers instructions. For transfection of HEK293 cells with mTOR plasmids, 2 μg DNA per 3×10E5 cells was transfected with Fugene 6 transfection reagent (Roche). For double transfection of plasmids with miRNA-precursors and inhibitors, pre- and anti-miRs were added to the plasmid/Fugene transfection mix in the same final concentrations as stated above. mTOR (Acc. NM004958) full length (SKU SC124066) and ORF-constructs (SKU RC220457) were obtained from the Origene collection (Origene, Rockville, Md.).
compound,measurement,setting,value
TNF-alpha,miR-100 expression,miR-100 [1],significant downregulation of miR-100
same,miR-100 expression,miR-100 [1]; listed as Tumor necrosis factor (TNF)-alpha,sustained downregulation of miR-100
same,dose dependency of miR-100 decrease,"miR-100 [1]; endothelial cells, TNF-alpha concentrations tested",trend for a more pronounced decrease of miR-100 expression with higher doses
"Antag-100: antagomir 5′-cacaaguucggaucuacggguu-3′ (SEQ ID No. 3), 2-O-methyl-RNA, phosphothioat modifications, cholesterol conjugation at 3′-end (antisense CACAAGUUCGGAUCUACGGGUU; all 2'-O-methyl, 3' {Chol}, backbone not given here; phosphorothioate modifications)",flow ratio,"[2]; day 7 following induction of ischemia, compared to two control-antagomirs",higher flow ratio
same,capillary density,[2]; distal hindlimb / ischemic tissue,increase in capillary density
same,perfusion restoration (blood flow restoration),"[2]; mice, after femoral artery occlusion, day 7, vs control-antagomirs or solvent, FIG. 9",significant stimulation of perfusion restoration
same,tissue localisation of antagomir,[3],found in the endothelial layer of blood vessels; also recorded: most prominent accumulation was found in liver and lung sections
same,miR-100 expression in a wide selection of tissues,miR-100 [4],strong and sustained suppression of miR-100 expression
FGF2: pro-angiogenic or pro-arteriogenic cytokine,miR-100 expression,miR-100 [1],no sustained and reproducible effect
TGF-beta1: pro-angiogenic or pro-arteriogenic cytokine,miR-100 expression,miR-100 [1],no sustained and reproducible effect
VEGF,miR-100 expression,miR-100 [1],no sustained and reproducible effect
"O=C(Nc1cc(Cl)cc2c1[nH]c1cnccc12)c1cccnc1 [PS1145, reference compound]",TNF-alpha effect on miR-100 expression,"miR-100 [1]; PS1145 10 μM, TNF-α 10 ng/ml, human endothelial cells, FIG. 16B",abrogated the TNF-alpha effect; also recorded: attenuates the regulatory effect of TNF-alpha on miR-100 levels
"anti-miR-100: antisense-molecule (anti-miR miRNA inhibitor, Ambion) silencing miR-100 in cultured cells; SEQ ID No:3 designated Anti miR (antisense CACAAGUUCGGAUCUACGGGUU; listed as RNA, chemistry not given here)",endothelial cell apoptosis,endothelial cells [5],no significant effect
same,endothelial sprouting (total sprout length),endothelial cells [6],longer total sprout length
same,endothelial network formation,endothelial cells [7],increased endothelial network formation
same,detectable miR-100 (relative miR-100 expression),miR-100 [8],significantly decreased miR-100 levels
same,endothelial cell proliferation (DNA-synthesis rate),endothelial cells [9],consistent stimulatory effect
same,leukocyte (PBMC) adhesion to transfected endothelial cells,HUVECs / human PBMCs,stimulatory effect
same,leukocyte (PBMC) rolling on transfected endothelial cells,HUVECs / human PBMCs,stimulatory effect
same,mTOR-expression on both mRNA as well as protein level,mTOR,significant upregulation
